Assays:
human recombinant sEH = biological target: T1, human recombinant sEH (Homo sapiens, UniProt P34913); assay: Cell-free sEH activity assay (fluorescence-based, PHOME substrate); format: biochemical; settings: for sEH activity % of control at 1 μM / sEH activity % of control at 10 μM: residual activity; for inhibition at 10 µM: inhibition as stated in text
T1 construct: made in house; host or cells: Sf9 cells infected with recombinant baculovirus (from Dr. Bruce Hammock, UC Davis)
T1 sequence (P34913 1-555): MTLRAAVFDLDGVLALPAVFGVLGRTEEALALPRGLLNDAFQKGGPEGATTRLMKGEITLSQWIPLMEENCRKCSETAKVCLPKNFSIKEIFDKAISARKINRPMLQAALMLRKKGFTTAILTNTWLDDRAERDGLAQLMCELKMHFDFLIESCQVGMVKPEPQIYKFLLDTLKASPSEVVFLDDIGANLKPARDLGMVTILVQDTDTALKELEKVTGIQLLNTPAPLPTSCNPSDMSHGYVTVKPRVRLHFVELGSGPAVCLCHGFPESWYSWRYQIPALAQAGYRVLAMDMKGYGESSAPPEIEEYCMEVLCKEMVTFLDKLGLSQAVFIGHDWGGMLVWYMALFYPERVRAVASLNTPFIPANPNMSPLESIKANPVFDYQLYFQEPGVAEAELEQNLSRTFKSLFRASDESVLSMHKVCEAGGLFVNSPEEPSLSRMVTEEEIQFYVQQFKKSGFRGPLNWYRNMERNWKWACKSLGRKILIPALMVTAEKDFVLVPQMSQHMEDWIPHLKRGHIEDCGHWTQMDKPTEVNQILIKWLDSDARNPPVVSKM
From the text: Inspired by the reported crystallographic screening studies,[12],[13],[15] a series of aryl amide (12, 15–21) or urea (31–39) derivatives with a benzoxazolone head group were synthesized and assessed for inhibition of human recombinant sEH in a cell-free activity assay[27] (Tables 1 and 2). […] Consequently, compounds in which the amide group is attached to the benzoxazolone ring through NH could outperform their direct reversed analogues by more favorable interactions in the central pocket of sEH. In addition, simple methylation of the benzoxazolone NH in 17–18 engendered noticeable differences in sEH inhibition relative to the unmethylated counterparts 15–16, implying that a free NH with H-bond donor property at this location is also important for the observed potency. Subsequently, the positioning of the amide group at the 5-position of the benzoxazolone ring also retained the inhibitory activity.
Human recombinant sEH was expressed and purified as published before.[31] Briefly, Sf9 cells were infected with a recombinant baculovirus (obtained from Dr. Bruce Hammock, University of California, Davis, CA). Following 72 h of transfection, the cells were centrifuged and then sonicated (3 × 10 s at 4 °C) in lysis buffer comprising glycerol (10%), NaHPO4 (50 mM, pH 8), leupeptin (10 μg/mL), NaCl (300 mM), phenylmethanesulfonyl fluoride (1 mM), EDTA (1 mM), and soybean trypsin inhibitor (60 μg/mL). After centrifugation at 100,000g (60 min, 4 °C), the obtained supernatants were subjected to a benzylthio-sepharose-affinity chromatography and eluted with 4-fluorochalcone oxide in PBS containing 1 mM DTT and 1 mM EDTA for purification of sEH. The enzyme was dialyzed and concentrated (Millipore Amicon-Ultra-15 centrifugal filter), and the solution was further assayed for total protein content by a protein detection kit (Bio-Rad Laboratories, Munich, Germany). The epoxide hydrolase activity was measured using a fluorescence-based assay, as reported before.[27] In brief, sEH was diluted in Tris buffer (25 mM, pH 7) containing BSA (0.1 mg/mL) to a suitable enzyme concentration and pretreated with test compounds or 0.1% DMSO as vehicle for 10 min at room temperature. To start the reaction, 50 μM of the PHOME substrate (3-phenyl-cyano(6-methoxy-2-naphthalenyl)methyl ester-2-oxiraneacetic acid), a nonfluorescent compound that is enzymatically converted by sEH into fluorescent 6-methoxy-naphtaldehyde, was added at RT. The reaction was stopped by addition of ZnSO4 (200 mM) after 60 min, and fluorescence was measured (λem 465 nm, λex 330 nm) by employing a NOVOstar microplate reader (BMG LABTECH GmbH, Ortenberg, Germany). If required, the potential fluorescence of test compounds was subtracted from the readout.

[1] = mean ± SEM, n = 3, benzoxazolone-ureas (Table 2)
[2] = cell-free assay, mean ± SEM, n = 3, benzoxazolone-ureas (Table 2)
[3] = mean ± SEM, n = 3, benzoxazolone-amides (Table 1)
[4] = cell-free assay, benzoxazolone-amides (Table 1)

Compound | sEH activity % of control at 1 μM (human recombinant sEH; [1]) | sEH activity % of control at 10 μM (human recombinant sEH; [1]) | IC50 (human recombinant sEH; [2]) [nM] | melting point | sEH activity % of control at 1 μM (human recombinant sEH; [3]) | inhibition at 10 µM (human recombinant sEH) [%] | sEH activity % of control at 10 μM (human recombinant sEH; [3]) | IC50 (human recombinant sEH; [4]) [nM] | sEH inhibition (in words) (human recombinant sEH; cell-free assay)
O=C(Nc1ccc2[nH]c(=O)oc2c1)c1ccc(Oc2ccccc2)cc1 [Compound 16, N-(2-Oxo-2,3-dihydro-1,3-benzoxazol-6-yl)-4-phenoxybenzamide] |  |  |  | 231.8 to 233 °C | 49.8 ± 6.3 % of control | 85 | 15.2 ± 5.9 % of control | ~1000 | 
O=C(Nc1ccc2oc(=O)[nH]c2c1)c1ccc(Oc2ccccc2)cc1 [Compound 21, N-(2-Oxo-2,3-dihydro-1,3-benzoxazol-5-yl)-4-phenoxybenzamide] |  |  |  | 231 to 233 °C | 47.4 ± 7.1 % of control |  | 14.4 ± 6.8 % of control | ~1000 | 
O=C(Nc1ccc2[nH]c(=O)oc2c1)c1ccc(OCc2ccccc2)cc1 [Compound 15, 4-(Benzyloxy)-N-(2-oxo-2,3-dihydro-1,3-benzoxazol-6-yl)benzamide] |  |  |  | 256.6 to 259 °C | 67.8 ± 10.8 % of control | 70 | 28.9 ± 8.1 % of control | < 10000 | 
O=C(Nc1ccc2oc(=O)[nH]c2c1)c1ccc(OCc2ccccc2)cc1 [Compound 20, 4-(Benzyloxy)-N-(2-oxo-2,3-dihydro-1,3-benzoxazol-5-yl)benzamide] |  |  |  | 260.7 to 262.8 °C | 68.2 ± 6.6 % of control |  | 30.0 ± 10.5 % of control | < 10000 | 
O=C(Nc1ccc(OCc2ccccc2)cc1)c1ccc2[nH]c(=O)oc2c1 [Compound 12, N-[4-(Benzyloxy)phenyl]-2-oxo-2,3-dihydro-1,3-benzoxazole-6-carboxamide] |  |  |  | > 300 °C | 91.0 ± 6.1 % of control |  | 84.4 ± 3.8 % of control | > 10000 | devoid of sEH inhibition
Cn1c(=O)oc2cc(NC(=O)c3ccc(Oc4ccccc4)cc3)ccc21 [Compound 18, N-(3-Methyl-2-oxo-2,3-dihydro-1,3-benzoxazol-6-yl)-4-phenoxybenzamide] |  |  |  | 229.1 to 231.1 °C | 83.7 ± 9.8 % of control |  | 91.5 ± 2.8 % of control | > 10000 | 
Cn1c(=O)oc2cc(NC(=O)c3ccc(OCc4ccccc4)cc3)ccc21 [Compound 17, 4-(Benzyloxy)-N-(3-methyl-2-oxo-2,3-dihydro-1,3-benzoxazol-6-yl)benzamide] |  |  |  | 251.8 to 253.7 °C | 105.8 ± 15.9 % of control |  | 115.1 ± 4.9 % of control | > 10000 | 

More lines, now with the values ahead:

sEH activity % of control at 1 μM (human recombinant sEH; [1]) | sEH activity % of control at 10 μM (human recombinant sEH; [1]) | IC50 (human recombinant sEH; [2]) [nM] | melting point | sEH activity % of control at 1 μM (human recombinant sEH; [3]) | inhibition at 10 µM (human recombinant sEH) [%] | sEH activity % of control at 10 μM (human recombinant sEH; [3]) | IC50 (human recombinant sEH; [4]) [nM] | sEH inhibition (in words) (human recombinant sEH; cell-free assay) | Compound
18.6 ± 5.1 % of control | 7.5 ± 3.4 % of control | 80 ± 23 | 244.5 °C (dec.) |  |  |  |  |  | O=C(NCc1cccc(Cl)c1)Nc1ccc2oc(=O)[nH]c2c1 [Compound 34, 1-[(3-Chlorophenyl)methyl]-3-(2-oxo-2,3-dihydro-1,3-benzoxazol-5-yl)urea]
12.3 ± 2.5 % of control | 1.1 ± 1.8 % of control | 53 ± 8 | 213.6 °C (dec.) |  |  |  |  |  | O=C(NCc1ccc(C(F)(F)F)cc1)Nc1ccc2oc(=O)[nH]c2c1 [Compound 37, 3-(2-Oxo-2,3-dihydro-1,3-benzoxazol-5-yl)-1-{[4-(trifluoromethyl)phenyl]methyl}urea]
7.1 ± 5.8 % of control | 4.7 ± 8.0 % of control | 2 ± 0.42 | 237.8 °C (dec.) |  |  |  |  |  | O=C(NCc1ccccc1C(F)(F)F)Nc1ccc2oc(=O)[nH]c2c1 [Compound 32, 3-(2-Oxo-2,3-dihydro-1,3-benzoxazol-5-yl)-1-{[2-(trifluoromethyl)phenyl]methyl}urea]
3.1 ± 6.2 % of control | 5.8 ± 6.2 % of control | 9.9 ± 2.9 | 242.5 °C (dec.) |  |  |  |  |  | O=C(NCc1ccccc1Cl)Nc1ccc2oc(=O)[nH]c2c1 [Compound 31, 1-[(2-Chlorophenyl)methyl]-3-(2-oxo-2,3-dihydro-1,3-benzoxazol-5-yl)urea]
18.6 ± 2.6 % of control | 1.9 ± 2.4 % of control | 120 ± 20 | 251 °C (dec.) |  |  |  |  |  | O=C(NCc1ccc(Cl)cc1)Nc1ccc2oc(=O)[nH]c2c1 [Compound 36, 1-[(4-Chlorophenyl)methyl]-3-(2-oxo-2,3-dihydro-1,3-benzoxazol-5-yl)urea]
62.8 ± 3.3 % of control | 5.2 ± 3.6 % of control | 570 ± 15 | 249.3 °C (dec.) |  |  |  |  |  | O=C(NCc1ccc(F)cc1)Nc1ccc2oc(=O)[nH]c2c1 [Compound 35, 1-[(4-Fluorophenyl)methyl]-3-(2-oxo-2,3-dihydro-1,3-benzoxazol-5-yl)urea]
14.2 ± 2.7 % of control | 0.8 ± 2.0 % of control | 33 ± 10 | 259.9 °C (dec.) |  |  |  |  |  | O=C(NCc1cccc(F)c1F)Nc1ccc2oc(=O)[nH]c2c1 [Compound 39, 1-[(2,3-Difluorophenyl)methyl]-3-(2-oxo-2,3-dihydro-1,3-benzoxazol-5-yl)urea]
